Experiment: Organ distribution of Indium-113m EDTMP and DTPMP complexes in rabbits, simultaneous study with Strontium-85
Type: in vivo, adult albino rabbits
Settings: DTPMP group; for % Dose/1% Bodyweight, Average Bone: mean of femur, tibia, spine and pelvis; for % Dose in Whole Organ, Blood / % Dose in Whole Organ, Kidney / % Dose in Whole Organ, Liver / % Dose in Whole Organ, Marrow / % Dose in Whole Organ, Muscle / % Dose in Whole Organ, One Femur / % Dose in Whole Organ, One Tibia / % Dose in Whole Organ, Urine / % Dose/1% Bodyweight, Blood / % Dose/1% Bodyweight, Femur / % Dose/1% Bodyweight, Kidney / % Dose/1% Bodyweight, Liver / % Dose/1% Bodyweight, Marrow / % Dose/1% Bodyweight, Muscle / % Dose/1% Bodyweight, Pelvis / % Dose/1% Bodyweight, Spine / % Dose/1% Bodyweight, Tibia / Ratio Bone/Blood / Ratio Bone/Marrow / Ratio Bone/Muscle: rabbit i.v.
Method: 0.5-1.0 mCi of the complexes prepared according to Examples 1 and 4 (containing 2-5 mg of the phosphonate complex) were injected intravenously into adult albino rabbits weighing 3.5-5 kg. […] Organ distribution characteristics of these compositions were determined after sacrificing the animals 1-4 hours after injection using the method described in Perez et al, J. Nucl. Med. 13:788-789, 1972; Subramanian et al, Radiology, 98:192-196, 1971; Subramanian et al, Radiology, 102:701-704, 1972; Subramanian et al, J. Nucl. Med., 13:947-950, 1972; Tofe et al, J. Nucl. Med., 15:69-74, 1974; Yano, J. Nucl Med., 14:73-78, 1973; Castronova et al, J. Nucl. Med., 13:823-827, 1972; and Subramanian et al, J. Nucl. Med., August, 1975 (U.S. application Ser. No. 368,473, filed June 11, 1973). Appropriate corrections were made for Strontium-85 contributions in the Indium-113m windows.
For each time interval 3 animals were used and average values are set forth. The average bone concentrations expressed as % dose/1% body weight: […]
% dose/1% body weight [formula] are the mean of the concentrations in bone samples from femur, tibia, spine and pelvis. This value was calculated for individual rabbits and the mean value of these averages are shown. The values for ratios were calculated in a similar manner.
With respect to Table 1, Strontium 85 was employed as a biological standard to compare the uptake in various organs of individual groups of animals. In quantifying the bone uptake, it is necessary to compare more than merely the indium concentration from one group to another. In addition, the ratios of indium to strontium from each group should be compared because of the individual variation of bone uptake in animals.

With `O=P(O)(O)CN(CCN(CP(=O)(O)O)CP(=O)(O)O)CCN(CP(=O)(O)O)CP(=O)(O)O` [DTPMP, diethylene triamine penta(methylene phosphonic) acid] the “% Dose/1% Bodyweight, Average Bone” value (1 Hr.) was 5.14 % Dose/1% Bodyweight, the “% Dose in Whole Organ, Blood” value (1 Hr.) was 8.61 % Dose and the “% Dose in Whole Organ, Kidney” value (1 Hr.) was 2.43 % Dose. The “% Dose in Whole Organ, Liver” value (1 Hr.) was 0.702 % Dose, the “% Dose in Whole Organ, Marrow” value (1 Hr.) was 0.710 % Dose and the “% Dose in Whole Organ, Muscle” value (1 Hr.) was 4.61 % Dose. The “% Dose in Whole Organ, One Femur” value (1 Hr.) was 0.782 % Dose, the “% Dose in Whole Organ, One Tibia” value (1 Hr.) was 0.641 % Dose and the “% Dose in Whole Organ, Urine” value (1 Hr.) was 31.2 % Dose. The “% Dose/1% Bodyweight, Blood” value (1 Hr.) was 1.23 % Dose/1% Bodyweight, the “% Dose/1% Bodyweight, Femur” value (1 Hr.) was 3.57 % Dose/1% Bodyweight and the “% Dose/1% Bodyweight, Kidney” value (1 Hr.) was 5.62 % Dose/1% Bodyweight. For the same compound, the “% Dose/1% Bodyweight, Liver” value (1 Hr.) was 0.276 % Dose/1% Bodyweight, the “% Dose/1% Bodyweight, Marrow” value (1 Hr.) was 0.322 % Dose/1% Bodyweight and the “% Dose/1% Bodyweight, Muscle” value (1 Hr.) was 0.107 % Dose/1% Bodyweight. The “% Dose/1% Bodyweight, Pelvis” value (1 Hr.) was 7.15 % Dose/1% Bodyweight, the “% Dose/1% Bodyweight, Spine” value (1 Hr.) was 4.80 % Dose/1% Bodyweight and the “% Dose/1% Bodyweight, Tibia” value (1 Hr.) was 3.39 % Dose/1% Bodyweight. The “Ratio Bone/Blood” value (1 Hr.) was 4.17, the “Ratio Bone/Marrow” value (1 Hr.) was 15.9 and the “Ratio Bone/Muscle” value (1 Hr.) was 48.0. The “% Dose/1% Bodyweight, Average Bone” value (2 Hr.) was 4.58 % Dose/1% Bodyweight, the “% Dose in Whole Organ, Blood” value (2 Hr.) was 3.88 % Dose and the “% Dose in Whole Organ, Kidney” value (2 Hr.) was 1.09 % Dose. The “% Dose in Whole Organ, Liver” value (2 Hr.) was 0.453 % Dose, the “% Dose in Whole Organ, Marrow” value (2 Hr.) was 0.340 % Dose and the “% Dose in Whole Organ, Muscle” value (2 Hr.) was 1.92 % Dose. For the same compound, the “% Dose in Whole Organ, One Femur” value (2 Hr.) was 0.648 % Dose, the “% Dose in Whole Organ, One Tibia” value (2 Hr.) was 0.519 % Dose and the “% Dose in Whole Organ, Urine” value (2 Hr.) was 65.7 % Dose. The “% Dose/1% Bodyweight, Blood” value (2 Hr.) was 0.555 % Dose/1% Bodyweight, the “% Dose/1% Bodyweight, Femur” value (2 Hr.) was 3.07 % Dose/1% Bodyweight and the “% Dose/1% Bodyweight, Kidney” value (2 Hr.) was 2.40 % Dose/1% Bodyweight. The “% Dose/1% Bodyweight, Liver” value (2 Hr.) was 0.173 % Dose/1% Bodyweight, the “% Dose/1% Bodyweight, Marrow” value (2 Hr.) was 0.154 % Dose/1% Bodyweight and the “% Dose/1% Bodyweight, Muscle” value (2 Hr.) was 0.044 % Dose/1% Bodyweight. For the same compound, the “% Dose/1% Bodyweight, Pelvis” value (2 Hr.) was 6.15 % Dose/1% Bodyweight, the “% Dose/1% Bodyweight, Spine” value (2 Hr.) was 4.59 % Dose/1% Bodyweight and the “% Dose/1% Bodyweight, Tibia” value (2 Hr.) was 2.92 % Dose/1% Bodyweight. For the same compound, the “Ratio Bone/Blood” value (2 Hr.) was 8.25, the “Ratio Bone/Marrow” value (2 Hr.) was 29.7 and the “Ratio Bone/Muscle” value (2 Hr.) was 104. For the same compound, the “% Dose/1% Bodyweight, Average Bone” value (4 Hr.) was 4.79 % Dose/1% Bodyweight, the “% Dose in Whole Organ, Blood” value (4 Hr.) was 3.08 % Dose and the “% Dose in Whole Organ, Kidney” value (4 Hr.) was 1.03 % Dose. The “% Dose in Whole Organ, Liver” value (4 Hr.) was 0.354 % Dose, the “% Dose in Whole Organ, Marrow” value (4 Hr.) was 0.432 % Dose and the “% Dose in Whole Organ, Muscle” value (4 Hr.) was 1.92 % Dose. The “% Dose in Whole Organ, One Femur” value (4 Hr.) was 0.621 % Dose, the “% Dose in Whole Organ, One Tibia” value (4 Hr.) was 0.471 % Dose and the “% Dose in Whole Organ, Urine” value (4 Hr.) was 69.9 % Dose. The “% Dose/1% Bodyweight, Blood” value (4 Hr.) was 0.441 % Dose/1% Bodyweight, the “% Dose/1% Bodyweight, Femur” value (4 Hr.) was 2.97 % Dose/1% Bodyweight and the “% Dose/1% Bodyweight, Kidney” value (4 Hr.) was 2.28 % Dose/1% Bodyweight. The “% Dose/1% Bodyweight, Liver” value (4 Hr.) was 0.184 % Dose/1% Bodyweight, the “% Dose/1% Bodyweight, Marrow” value (4 Hr.) was 0.196 % Dose/1% Bodyweight and the “% Dose/1% Bodyweight, Muscle” value (4 Hr.) was 0.044 % Dose/1% Bodyweight. For the same compound, the “% Dose/1% Bodyweight, Pelvis” value (4 Hr.) was 6.37 % Dose/1% Bodyweight, the “% Dose/1% Bodyweight, Spine” value (4 Hr.) was 5.16 % Dose/1% Bodyweight and the “% Dose/1% Bodyweight, Tibia” value (4 Hr.) was 2.76 % Dose/1% Bodyweight. The “Ratio Bone/Blood” value (4 Hr.) was 10.8, the “Ratio Bone/Marrow” value (4 Hr.) was 24.4 and the “Ratio Bone/Muscle” value (4 Hr.) was 108.
